Assays:
[1] = cited from earlier work
[2] = system: panel of pathogens; details: cited from earlier work
[3] = system: wound healing; details: cited from earlier work
[4] = system: Aspergillus brasiliensis; assay: Antimicrobial preservative efficacy test (dilution neutralization), preservative as WFI solution; type: cell-based
Description: (§1) Preservatives are commonly used in multi-dose formulations, including animal vaccines, to prevent bacterial or fungal growth in field conditions and are employed to minimize contamination of the formulations during repeated (non-sterile) punctures into the vial. Preservatives must pass antimicrobial effectiveness testing (AET), as described in the US pharmacopeia. As disclosed herein, Applicants performed the antimicrobial tests according to United States Pharmacopeia (USP), British Pharmacopeia (BP), and European Pharmocopeia (EP). Four test organisms were used: Candida albicans, Pseudomonas aeruginosa, Staphylococcus aureus, and A. brasiliensis. And while thimerosal and formol continue to play an important role in veterinary vaccines, European authorities encourage the development of vaccines that are free from those compounds.
(§2) For each concentration of polyamide polymer, dilution neutralization was carried out by inoculating 10 mL of test product with 100 μL of each test strain. Countings were performed at Do, 6 h (bacteria only), 24 h (bacteria only), D7, D14 and D28. For each counting, 1 mL of the sample was neutralized in 9 mL of neutralizing solution (10 minutes), for S. aureus, a second 1:10 dilution in the same solution. Then 1 mL of the mixture was transferred in Petri dishes and covered with 15 mL of agar medium (Trypcase Soy Agar for bacteria and Sabouraud Dextrosed Agar for yeasts and molds). The countings were achieved after 24-48 hours incubation at 32.5° C.±2.5° C. for bacteria, and 48-72 hours at 22.5° C.[…] for yeasts and molds. The test micro-organisms included Staphylococcus aureus, Pseudomonas aeruginosa, Candida albicans and Aspergillus brasiliensis. Finally, the neutralization solution contained: Tween 80 (10%), lecithin (2%), saponin (2%), sodium thiosulfate (0.5%) and buffered solution chloride. The saponin was from the bark of Quillaja saponaria.
(§3) For each concentration of octenidine, dilution neutralization was carried out as disclosed in Example 1.

[5] = system: Candida albicans; assay: as above; type: cell-based
Description: as §1, §2, §3

Structure (SMILES): CCCCCCCCN=c1ccn(CCCCCCCCCCn2ccc(=NCCCCCCCC)cc2)cc1.Cl.Cl [Octenidine Dihydrochloride, Octenidine dihydrochloride]
- LD50 on rat [1]: LD50 on rat = 10 mg/kg
- Efficacy: spectrum [2]: Broad spectrum
- MIC [2]: MIC ≤1 μg/ml
- Cytotoxicity data: demonstrate any adverse effect to wound healing [3]: Cytotoxicity data failed to
- log reduction ([4]; 0.001 mg/mL, 7 d): 0 log
- viable count ([4]; 0.001 mg/mL, 7 d): 1.7 × 10^5
- log reduction ([4]; 0.001 mg/mL, 14 d): 0.1 log
- viable count ([4]; 0.001 mg/mL, 14 d): 1.4 × 10^5
- log reduction ([4]; 0.001 mg/mL, 28 d): 0.3 log
- viable count ([4]; 0.001 mg/mL, 28 d): 1.0 × 10^5
- viable count ([4]; 0.001 mg/mL, T0): 2.4 × 10^5
- log reduction ([4]; 0.01 mg/mL, 7 d): 0.7 log
- viable count ([4]; 0.01 mg/mL, 7 d): 3.8 × 10^4
- log reduction ([4]; 0.01 mg/mL, 14 d): 0.8 log
- viable count ([4]; 0.01 mg/mL, 14 d): 3.2 × 10^4
- log reduction ([4]; 0.01 mg/mL, 28 d): 0.8 log
- viable count ([4]; 0.01 mg/mL, T0): 2.8 × 10^5
- log reduction ([4]; 0.1 mg/mL, 7 d): 0.4 log
- viable count ([4]; 0.1 mg/mL, 7 d): 7.5 × 10^4
- log reduction ([4]; 0.1 mg/mL, 14 d): 1.3 log
- viable count ([4]; 0.1 mg/mL, 14 d): 1.0 × 10^4
- log reduction ([4]; 0.1 mg/mL, 28 d): 0.8 log
- viable count ([4]; 0.1 mg/mL, 28 d): 2.8 × 10^4
- viable count ([4]; 0.1 mg/mL, T0): 1.7 × 10^5
- log reduction ([4]; 1 mg/mL, 7 d): 0.8 log
- viable count ([4]; 1 mg/mL, 7 d): 2.9 × 10^4
- log reduction ([4]; 1 mg/mL, 14 d): 1 log
- viable count ([4]; 1 mg/mL, 14 d): 1.7 × 10^4
- log reduction ([4]; 1 mg/mL, 28 d): 1.1 log
- viable count ([4]; 1 mg/mL, 28 d): 1.4 × 10^4
- viable count ([4]; 1 mg/mL, T0): 1.6 × 10^5
- log reduction ([5]; 0.001 mg/mL, 7 d): 4 log
- viable count ([5]; 0.001 mg/mL, 7 d): 20
- log reduction ([5]; 0.001 mg/mL, 14 d): 4.3 log
- viable count ([5]; 0.001 mg/mL, 14 d): 10
- log reduction ([5]; 0.001 mg/mL, 28 d): >4.3 log
- viable count ([5]; 0.001 mg/mL, 28 d): <10
- viable count ([5]; 0.001 mg/mL, T0): 1.7 × 10^5
- log reduction ([5]; 0.01 mg/mL, 7 d): >4.3 log
- viable count ([5]; 0.01 mg/mL, 7 d): <10
- log reduction ([5]; 0.01 mg/mL, 14 d): >4.3 log
- viable count ([5]; 0.01 mg/mL, 14 d): <10
- log reduction ([5]; 0.01 mg/mL, 28 d): >4.3 log
- viable count ([5]; 0.01 mg/mL, 28 d): <10
- viable count ([5]; 0.01 mg/mL, T0): 2 × 10^3
- log reduction ([5]; 0.1 mg/mL, 7 d): >4.3 log
- viable count ([5]; 0.1 mg/mL, 7 d): <10
- log reduction ([5]; 0.1 mg/mL, 14 d): >4.3 log
- viable count ([5]; 0.1 mg/mL, 14 d): <10
- log reduction ([5]; 0.1 mg/mL, 28 d): >4.3 log
- viable count ([5]; 0.1 mg/mL, 28 d): <10
- viable count ([5]; 0.1 mg/mL, T0): <10
- log reduction ([5]; 1 mg/mL, 7 d): >4.3 log
- viable count ([5]; 1 mg/mL, 7 d): <10
- log reduction ([5]; 1 mg/mL, 14 d): >4.3 log
- viable count ([5]; 1 mg/mL, 14 d): <10
- log reduction ([5]; 1 mg/mL, 28 d): >4.3 log
- viable count ([5]; 1 mg/mL, 28 d): <10
- viable count ([5]; 1 mg/mL, T0): <10

From US10583154B2, “Multi-dose compositions containing an antimicrobial polyamide or octenidine preservative” (priority 2016, dated 2020)
